The source of these data is publication PMC8551077, “Conditions for maintenance of hepatocyte differentiation and function in 3D cultures” (iScience, 2021).

Read-outs that look alike come from different tables or passages of the source.

For data set [1], the system named is primary human hepatocytes (PHH) spheroids. The settings on record: 14 days of treatment, preliminary.
Description: To compare how the best performing media influenced the DILI response, a similar approach but in the 384-well format we performed a preliminary hepatotoxicity study (Figure S6). Five prototypic compounds from the previous study were tested in HMM, WENG, and WENG+ media. […] Hepatotoxicity was evaluated after chronic exposure to each of the five drug compounds at 1×, 5×, and 20× times their clinical Cmax concentrations for two weeks, as outlined by [Vorrink et al., (2018)].
ATP conent (expressed as relative light units; RLU) was used to measure the energy status of the PHH spheroids. The spheroids were incubated in AccuMax cell dissociation solution (Thermo Fisher Scientific) for 30 min at 37°C followed by centrifugation at 100 x g for 5 min. The CellTiter-Glo3D assay (Promega, Madison, Wisconsin) was used, with slight modifications. Briefly, the plate was first left for 30 min at room temperature for temperature equilibration. Thereafter CellTiter-Glo® 3D was added, and the plate left in room temperature for another 20 min on a horizontal plate shaker. The luminescence was measured on a Spark plate reader (TECAN). The results are presented as mean values +/- SD of eight technical replicates performed on three independent occasions.
Preliminary studies of hepatotoxicity were conducted as previously described for the 96-well format ([Vorrink et al., 2018]). Briefly, PHHs were cultured in 384-well plates in HMM, WENG or WENG+ media for 1 week to form spheroids. The compounds were dissolved in dimethyl sulfoxide (DMSO), and added to the wells at a final DMSO concentration of 0.5%. As in the Vorrink et al. study, final concentrations of 1×, 5×, and 20× times the clinical Cmax of the compounds were used The exposure medium was changed every 48–72h for the 14 days of treatment. On the last day, PHH viability was assessed by measurement of ATP content (see above) and a viability below 80% of control levels was considered hepatotoxic ([Vorrink et al., 2018]).
The test system of another data set is PHH spheroids. The settings on record: 96-well format, medium similar to WEHG; ref Vorrink et al., 2018; cited from earlier work.
For the next data set, the system named is albumin. The settings on record: ref Davies and Anderson, 1997; U. S. Food and Drug Administration, 2019; cited from earlier work.
The mark [2] stands for this setting: all media (HMM, WENG, WENG+), all concentrations (1×, 5×, 20× clinical Cmax), controls gave correct results.
The mark [3] stands for this setting: WENG+ medium (zinc-supplemented), 1×, 5×, 20× clinical Cmax.

In the case of `CC(=O)CC(c1ccccc1)c1c(O)c2ccccc2oc1=O` (stereo not drawn) [warfarin], the “Hepatotoxicity (DILI signal; viability below 80% of control levels considered hepatotoxic)” value in data set [1] (setting [2]) is “negative”.

For the compound `OC(Cn1cncn1)(Cn1cncn1)c1ccc(F)cc1F` [fluconazole], the “Hepatotoxicity (DILI signal; viability below 80% of control levels considered hepatotoxic)” value is recorded as “strong DILI signal” in data set [1] (HMM medium, 1×, 5×, 20× clinical Cmax); “strong DILI signal” in data set [1] (WENG medium, 1×, 5×, 20× clinical Cmax); “false negative response” in data set [1] (setting [3]). Also, the “DILI classification in the previous study” value (“DILI classification” for short) in the data set on PHH spheroids is on record as “false DILI-negative”.

For the compound `Cn1cnc([N+](=O)[O-])c1Sc1ncnc2nc[nH]c12` [azathioprine], the “Hepatotoxicity (DILI signal; viability below 80% of control levels considered hepatotoxic)” value in data set [1] (setting [2]) is on record as “positive”. Also, in the data set with PHH spheroids, the “DILI classification” value is “DILI-positive”.

As to `CN(C)CCCN1c2ccccc2Sc2ccc(Cl)cc21` [chlorpromazine], in data set [1] (setting [3]), the “Hepatotoxicity (DILI signal; viability below 80% of control levels considered hepatotoxic)” value is on record as “did not show a DILI signal”. In addition, in the data set on PHH spheroids, the “DILI classification” value is on record as “DILI-positive”.

For the compound `O=C(O)Cc1ccccc1Nc1c(Cl)cccc1Cl` [diclofenac], the “Hepatotoxicity (DILI signal; viability below 80% of control levels considered hepatotoxic)” value in data set [1] (setting [3]) is “did not show a DILI signal”. Also, the “DILI classification” value in the data set on PHH spheroids is on record as “DILI-positive”.

Take `Cc1ncc2n1-c1ccc(Cl)cc1C(c1ccccc1F)=NC2` [midazolam]: the Binding to albumin result in the data set with albumin is given as “highly bound”.
